PMC5908784, “Extracellular loops 2 and 3 of the calcitonin receptor selectively modify agonist binding and efficacy” (Biochemical Pharmacology, 2018)
Positions count from the first letter of the chain named. Where no end group is shown, it is not given here.

Tests used:
Test in all cases: Homologous whole cell competition binding
Settings in all cases: homologous competition of 125I-sCT(8-32), whole cells, mean ± S.E.M., SEM
hCTR E294A = target: T1, hCTR E294A (Homo sapiens, UniProt P30988, E294A)
T1 construct: c-Myc (N); expressed in transfected cells
T1 sequence (P30988 25-474 E294A): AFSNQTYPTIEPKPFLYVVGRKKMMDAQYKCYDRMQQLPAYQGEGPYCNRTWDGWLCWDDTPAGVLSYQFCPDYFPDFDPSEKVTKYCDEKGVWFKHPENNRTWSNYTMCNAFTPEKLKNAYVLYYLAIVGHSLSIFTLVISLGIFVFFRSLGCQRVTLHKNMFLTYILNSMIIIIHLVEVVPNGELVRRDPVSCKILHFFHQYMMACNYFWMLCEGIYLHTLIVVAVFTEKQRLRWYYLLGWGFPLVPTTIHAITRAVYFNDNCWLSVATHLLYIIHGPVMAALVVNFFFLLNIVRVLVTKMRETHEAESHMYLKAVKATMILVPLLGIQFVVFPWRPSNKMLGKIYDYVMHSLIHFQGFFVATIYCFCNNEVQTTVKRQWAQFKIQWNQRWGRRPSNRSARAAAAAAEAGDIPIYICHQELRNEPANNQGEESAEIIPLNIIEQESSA
Procedure, shortened: (§1)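 Whole cells expressing the mutant receptor were incubated overnight at 4 °C with ^125I-sCT(8-32) (25–100 pM, two concentrations) and serial dilutions of unlabelled sCT(8-32). Bound radioactivity was gamma-counted; nonspecific binding was defined with 1 μM sCT(8-32). IC50 was fitted by 3-parameter logistic and Cheng-Prusoff-corrected to pKi.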

hCTR L291A = target: T2, hCTR L291A (Homo sapiens, UniProt P30988, L291A)
T2 construct: expressed in transfected cells
T2 sequence (P30988 25-474 L291A): T1 sequence (P30988 25-474 E294A) with L267A, A270E
Procedure, shortened: as §1

hCTR P363A = target: T3, hCTR P363A (Homo sapiens, UniProt P30988, P363A)
T3 construct: expressed in transfected cells
T3 sequence (P30988 25-474 P363A): T1 sequence (P30988 25-474 E294A) with A270E, P339A
Procedure, shortened: as §1

hCTR S364A = target: T4, hCTR S364A (Homo sapiens, UniProt P30988, S364A)
T4 construct: c-Myc (N); expressed in transfected cells
T4 sequence (P30988 25-474 S364A): T1 sequence (P30988 25-474 E294A) with A270E, S340A
Procedure, shortened: as §1

Ki (hCTR E294A): 0.263 nM
Ki (hCTR L291A): 1.74 nM
Ki (hCTR P363A): 0.355 nM
Ki (hCTR S364A): 0.191 nM
Substance: VLGKLSQELHKLQTYPRTNTGSGTP-NH2 [sCT(8-32)]
